Source: US10519177B2, “Heterocyclic compounds and uses thereof” (Plexxikon Inc., priority 2013, dated 2019)

test system: bromodomain; experiment: at least one of the bromodomain cell assays of Example 57; assay type: cell-based; conditions: at least one of the bromodomain cell assays described in Example 57; read-out: IC50 in at least one of the bromodomain cell assays

Compound	IC50
[2H]C([2H])([2H])c1ccc(-c2cn([C@H](c3ccccc3)c3ccccn3)c3cc(-c4c(C)noc4C)cnc23)cc1 [P-0787, 3,5-dimethyl-4-[1-[(R)-phenyl(2-pyridyl)methyl]-3-[4-(trideuteriomethyl)phenyl]pyrrolo[3,2-b]pyridin-6-yl]isoxazole]	< 10 µM
Cc1noc(C)c1-c1cnc2c(-c3ccc(C(C)(C)C)cc3)cn([C@@H](c3ccccc3)c3ccccn3)c2c1 [P-0813, 4-[3-(4-tert-butylphenyl)-1-[(S)-phenyl(2-pyridyl)methyl]pyrrolo[3,2-b]pyridin-6-yl]-3,5-dimethyl-isoxazole]	< 10 µM
Cc1ccc(-c2cn([C@H](c3ccccn3)C3CCCCC3)c3cc(-c4c(C)noc4C)cnc23)cc1 [P-0818, 4-[1-[(S)-cyclohexyl(2-pyridyl)methyl]-3-(p-tolyl)pyrrolo[3,2-b]pyridin-6-yl]-3,5-dimethyl-isoxazole]	< 10 µM
Cc1noc(C)c1-c1cnc2c(-c3ccc(B(O)O)cc3)cn(CC3CCCCC3)c2c1 [P-0709, [4-[1-(cyclohexylmethyl)-6-(3,5-dimethylisoxazol-4-yl)pyrrolo[3,2-b]pyridin-3-yl]phenyl]boronic acid]	< 10 µM
Cc1noc(C)c1-c1cnc2c(-c3ccc4c(c3)COC4=O)cn(CC3CCC(F)(F)CC3)c2c1 [P-0796, 5-[1-[(4,4-difluorocyclohexyl)methyl]-6-(3,5-dimethylisoxazol-4-yl)pyrrolo[3,2-b]pyridin-3-yl]-3H-isobenzofuran-1-one]	< 10 µM
Cc1noc(C)c1-c1cnc2c(-c3ccc(C(C)(C)C(=O)O)cc3)cn(CC3CCOCC3)c2c1 [P-0773, 2-[4-[6-(3,5-dimethylisoxazol-4-yl)-1-(tetrahydropyran-4-ylmethyl)pyrrolo[3,2-b]pyridin-3-yl]phenyl]-2-methyl-propanoic acid]	< 10 µM
Cc1ccc(-c2cn(CC3CC4CC4C3)c3cc(-c4c(C)noc4C)cnc23)cc1 (stereo not shown) [P-0795, 4-[1-(3-bicyclo[3.1.0]hexanylmethyl)-3-(p-tolyl)pyrrolo[3,2-b]pyridin-6-yl]-3,5-dimethyl-isoxazole]	< 10 µM
Cc1nnn(C)c1-c1cnc2c(-c3ccc(CC(=O)O)cc3)cn(CC3(F)CCC(F)(F)CC3)c2c1 [P-0812, 2-[4-[6-(3,5-dimethyltriazol-4-yl)-1-[(1,4,4-trifluorocyclohexyl)methyl]pyrrolo[3,2-b]pyridin-3-yl]phenyl]acetic acid]	< 10 µM
Cc1noc(C)c1-c1ccc2c(-c3ccc(CO)cc3)cn([C@H](c3ccccc3)c3ccccn3)c2c1 [P-0757, [4-[6-(3,5-dimethylisoxazol-4-yl)-1-[(R)-phenyl(2-pyridyl)methyl]indol-3-yl]phenyl]methanol]	< 10 µM
Cc1noc(C)c1-c1cnc2c(-c3ccc(C(=O)O)cc3)cn(C(c3ccccc3)c3ccccn3)c2c1 (stereo not shown) [P-0611, 4-[6-(3,5-dimethylisoxazol-4-yl)-1-[phenyl(2-pyridyl)methyl]pyrrolo[3,2-b]pyridin-3-yl]benzoic acid]	< 10 µM
Cc1noc(C)c1-c1cnc2c(c1)c(C(c1ccccn1)c1ccccn1)cn2-c1ccc(C(=O)O)cc1 [P-0735, 4-[3-[bis(2-pyridyl)methyl]-5-(3,5-dimethylisoxazol-4-yl)pyrrolo[2,3-b]pyridin-1-yl]benzoic acid]	< 10 µM
Cc1noc(C)c1-c1cnc2c(-c3ccc(C(=O)O)cc3)cn([C@H](c3ccccn3)C3CCCC3)c2c1 [P-0819, 4-[1-[(S)-cyclopentyl(2-pyridyl)methyl]-6-(3,5-dimethylisoxazol-4-yl)pyrrolo[3,2-b]pyridin-3-yl]benzoic acid]	< 10 µM
Cn1cc(-c2ccc3c(-c4ccc(C(=O)O)cc4)cn(CC4CCCCC4)c3c2)cc(Cl)c1=O [P-0763, 4-[6-(5-chloro-1-methyl-6-oxo-3-pyridyl)-1-(cyclohexylmethyl)indol-3-yl]benzoic acid]	< 10 µM
Cc1noc(C)c1-c1cnc2c(-c3ccc(B(O)O)cc3)cn([C@@H](c3ccccc3)c3ccccn3)c2c1 [P-0718, [4-[6-(3,5-dimethylisoxazol-4-yl)-1-[(S)-phenyl(2-pyridyl)methyl]pyrrolo[3,2-b]pyridin-3-yl]phenyl]boronic acid]	< 10 µM

The next lines start with the values.

IC50	Compound
< 10 µM	Cc1ccc(-c2cn(CC3(F)CCC(F)(F)CC3)c3cc(-c4c(C)nnn4C)cnc23)cc1 [P-0808, 6-(3,5-dimethyltriazol-4-yl)-3-(p-tolyl)-1-[(1,4,4-trifluorocyclohexyl)methyl]pyrrolo[3,2-b]pyridine]
< 10 µM	Cc1noc(C)c1-c1cnc2c(-c3ccc(B(O)O)cc3)cn([C@H](c3ccccc3)c3ccccn3)c2c1 [P-0729, [4-[6-(3,5-dimethylisoxazol-4-yl)-1-[(R)-phenyl(2-pyridyl)methyl]pyrrolo[3,2-b]pyridin-3-yl]phenyl]boronic acid]
< 10 µM	Cc1cc(-c2ccc3c(-c4ccc(C(=O)O)cc4)cn(CC4CCCCC4)c3c2)cn(C)c1=O [P-0760, 4-[1-(cyclohexylmethyl)-6-(1,5-dimethyl-6-oxo-3-pyridyl)indol-3-yl]benzoic acid]
< 10 µM	Cc1noc(C)c1-c1cnc2c(-c3ccc4c(c3)CCOC4=O)cn(CC3CCCCC3)c2c1 [P-0799, 6-[1-(cyclohexylmethyl)-6-(3,5-dimethylisoxazol-4-yl)pyrrolo[3,2-b]pyridin-3-yl]isochroman-1-one]
< 10 µM	Cc1noc(C)c1-c1cnc2c(F)cn([C@H](c3ccccc3)c3ccccn3)c2c1 [P-0723, 4-[3-fluoro-1-[(R)-phenyl(2-pyridyl)methyl]pyrrolo[3,2-b]pyridin-6-yl]-3,5-dimethyl-isoxazole]
< 10 µM	Cc1nnn(C)c1-c1cnc2c(-c3ccc(C(C)(C)C)cc3)cn(CC3CCC(F)(F)CC3)c2c1 [P-0810, 3-(4-tert-butylphenyl)-1-[(4,4-difluorocyclohexyl)methyl]-6-(3,5-dimethyltriazol-4-yl)pyrrolo[3,2-b]pyridine]
< 10 µM	Cc1cc(-c2cnc3c(-c4ccc(C(=O)O)cc4)cn([C@@H](C)c4ccccn4)c3c2)cn(C)c1=O [P-0761, 4-[6-(1,5-dimethyl-6-oxo-3-pyridyl)-1-[(1S)-1-(2-pyridyl)ethyl]pyrrolo[3,2-b]pyridin-3-yl]benzoic acid]
< 10 µM	Cc1noc(C)c1-c1cnc2c(-c3ccc(C(C)(C)C)cc3)cn(Cc3ccccn3)c2c1 [P-0804, 4-[3-(4-tert-butylphenyl)-1-(2-pyridylmethyl)pyrrolo[3,2-b]pyridin-6-yl]-3,5-dimethyl-isoxazole]
< 10 µM	Cc1nnn(C)c1-c1cnc2c(-c3ccc(C(C)(C)C)cc3)cn(CC3(F)CCC(F)(F)CC3)c2c1 [P-0809, 3-(4-tert-butylphenyl)-6-(3,5-dimethyltriazol-4-yl)-1-[(1,4,4-trifluorocyclohexyl)methyl]pyrrolo[3,2-b]pyridine]
< 10 µM	COC(=O)c1ccc(-c2cn(C(c3ccccc3)c3ccccn3)c3cc(-c4c(C)noc4C)cnc23)cc1 (stereo not shown) [P-0610, methyl 4-[6-(3,5-dimethylisoxazol-4-yl)-1-[phenyl(2-pyridyl)methyl]pyrrolo[3,2-b]pyridin-3-yl]benzoate]
< 10 µM	Cc1noc(C)c1-c1cnc2c(-c3ccc(C(=O)O)cc3)cn([C@H](c3ccccn3)C3CCCCC3)c2c1 [P-0815, 4-[1-[(S)-cyclohexyl(2-pyridyl)methyl]-6-(3,5-dimethylisoxazol-4-yl)pyrrolo[3,2-b]pyridin-3-yl]benzoic acid]
